From patent publication US9765018B2, “IDO inhibitors” (BRISTOL-MYERS SQUIBB COMPANY, priority 2013, dated 2017) come the findings set out here.

Each structure is given as a SMILES string.

T1 sequence (P14902 whole entry): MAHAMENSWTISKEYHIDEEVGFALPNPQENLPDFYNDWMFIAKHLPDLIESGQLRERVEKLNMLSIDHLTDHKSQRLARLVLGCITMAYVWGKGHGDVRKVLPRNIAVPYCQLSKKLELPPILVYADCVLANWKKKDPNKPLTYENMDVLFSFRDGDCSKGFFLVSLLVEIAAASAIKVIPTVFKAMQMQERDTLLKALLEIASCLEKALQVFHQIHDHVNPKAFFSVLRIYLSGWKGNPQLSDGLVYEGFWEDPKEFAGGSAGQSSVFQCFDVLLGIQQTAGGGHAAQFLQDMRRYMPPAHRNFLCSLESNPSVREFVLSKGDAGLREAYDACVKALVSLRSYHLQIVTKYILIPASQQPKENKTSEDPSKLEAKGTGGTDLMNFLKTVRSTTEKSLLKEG

One assay has as its target T1, IDO (Homo sapiens (Human), UniProt P14902). The assay is described as follows: LLE_IDO_ABS_DR (IDO assay, method not described).
Conditions: not given
For the compound `CC(C)C(Oc1ccc(-c2ccccc2-c2nnn[nH]2)cc1NC(=O)Nc1ccccc1F)C(C)C` [Example 11, 1-(4-((2,4-Dimethylpentan-3-yl)oxy)-2′-(1H-tetrazol-5-yl)-[1,1′-biphenyl]-3-yl)-3-(2-fluorophenyl)urea], the IC50 came to 0.16 µM. With `C/C=C/Cc1cc(-c2cc(F)ccc2C(=O)O)cc(NC(=O)Nc2ccc(C)cc2)c1OCCC` [Example 21, (E)-3′-(But-2-en-1-yl)-5-fluoro-4′-propoxy-5′-(3-(p-tolyl)ureido)-[1,1′-biphenyl]-2-carboxylic acid], the IC50 was 0.15 µM.

In another assay the target is T1, IDO. Briefly: Kynurenine assay in IFN-γ-stimulated Hela cells. The class given is cell-based. The conditions noted are these: 20 h, read-out: Hela Kyurenine (IC50). In outline:
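Hela cells adhered 5-6 h, then received inhibitor (top dose 30 μM, 3-fold dilutions to 1.5 nM) plus 100 ng/mL human IFN-γ to induce IDO, 20 h at 37° C. TCA added, 30 min at 50° C hydrolyses N-formylkynurenine to kynurenine. Supernatant mixed with Ehrlich reagent, 10 min RT, absorbance 490 nm.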
Consider `Cc1cccc(NC(=O)Nc2cc(-c3cccc(C(=O)O)c3)ccc2Oc2ccc(Cl)cc2)c1` [Example 249, 4′-(4-chlorophenoxy)-3′-(3-m-tolylureido) biphenyl-3-carboxylic acid], for which the IC50 stood at 2.55 µM. As for `Cc1cccc(NC(=O)Nc2cc(-c3ccc(C(=O)O)c(Cl)c3)ccc2Oc2ccccc2C(F)(F)F)c1` [Example 204, 3-chloro-3′-(3-m-tolylureido)-4′-(2-(trifluoromethyl)phenoxy)biphenyl-4-carboxylic acid], the IC50 amounted to 1.25 µM. In the case of `CC(C)(C)c1ccccc1Oc1ccc(-c2cc(Cl)cc(C(=O)O)c2)cc1NC(=O)Nc1ccc(C(F)(F)F)cc1` [Example 241, 4′-(2-tert-butylphenoxy)-5-chloro-3′-(3-(4-(trifluoromethyl)phenyl)ureido) biphenyl-3-carboxylic acid], the IC50 worked out at 1.04 µM. Same read-out and setting: next, `COc1cccc(NC(=O)Nc2cc(-c3ccc(OC)c(C(=O)O)c3)ccc2Oc2ccccc2C(C)(C)C)c1` [Example 86, 4′-(2-(tert-butyl)phenoxy)-3′-(3-(3-methoxyphenyl)ureido)-4-methoxy-[1,1′-biphenyl]-3-carboxylic acid]: 0.23 µM. The same measure, in the same setting: next, `COc1ccccc1Oc1ccc(-c2ccc(OC)c(C(=O)O)c2)cc1NC(=O)Nc1ccccc1Cl` [Example 68, 3′-(3-(2-chlorophenyl)ureido)-4-methoxy-4′-(2-methoxyphenoxy)biphenyl-3-carboxylic acid]: 0.49 µM; `COc1ccc(-c2ccc(Oc3ccccc3C(C)(C)C)c(NC(=O)Nc3c(Cl)cccc3Cl)c2)cc1C(=O)O` [Example 82, 4′-(2-(tert-butyl)phenoxy)-3′-(3-(2,6-dichlorophenyl)ureido)-4-methoxy-[1,1′-biphenyl]-3-carboxylic acid]: 0.84 µM; `Cc1ccc(NC(=O)Nc2cc(-c3cccc(C(=O)O)c3)ccc2Oc2ccc(Cl)cc2)cc1` [Example 248, 4′-(4-chlorophenoxy)-3′-(3-p-tolylureido) biphenyl-3-carboxylic acid]: 1.49 µM. The same measure, in the same setting: the same measure for `COc1ccc(-c2ccc(O[C@@H]3CCCC[C@H]3C)c(NC(=O)Nc3ccc(C)cc3)c2)cc1C(=O)O` (relative stereo) [Example 134, 4-methoxy-4′-((trans)-2-methylcyclohexyloxy)-3′-(3-p-tolylureido)biphenyl-3-carboxylic acid]: 1.39 µM. With `Cc1ccc(NC(=O)Nc2cc(-c3cc(F)cc(C(=O)O)c3)ccc2Oc2ccccc2C(C)(C)C)cc1` [Example 252, 4′-(2-tert-butylphenoxy)-5-fluoro-3′-(3-p-tolylureido) biphenyl-3-carboxylic acid], the IC50 is 0.66 µM. On to `COc1cc(-c2ccc(Oc3ccccc3C(C)(C)C)c(NC(=O)Nc3cccc(C)c3)c2)ccc1C(=O)O` [Example 212, 4′-(2-tert-butylphenoxy)-3-methoxy-3′-(3-m-tolylureido) biphenyl-4-carboxylic acid], for which the IC50 was 1.07 µM. For the compound `COc1ccc(-c2ccc(Oc3ccccc3C(C)(C)C)c(NC(=O)Nc3ccc(N(C)C)cc3)c2)cc1C(=O)O` [Example 101, 4′-(2-(tert-butyl)phenoxy)-3′-(3-(4-(dimethylamino)phenyl)ureido)-4-methoxy-[1,1′-biphenyl]-3-carboxylic acid], the IC50 was determined as 1.01 µM. Turning to `COc1ccc(-c2ccc(Oc3ccccc3C(C)(C)C)c(NC(=O)Nc3ccc(Cl)c(Cl)c3)c2)cc1C(=O)O` [Example 105, 4′-(2-(tert-butyl)phenoxy)-3′-(3-(3,4-dichlorophenyl)ureido)-4-methoxy-[1,1′-biphenyl]-3-carboxylic acid], the IC50 is 0.37 µM.

Consider `COc1ccc(-c2ccc(Oc3ccccc3C(C)(C)C)c(NC(=O)Nc3ccccc3C)c2)cc1C(=O)O` [Example 44, 4′-(2-tert-butylphenoxy)-4-methoxy-3′-(3-o-tolylureido)biphenyl-3-carboxylic acid], for which the IC50 came out at 0.49 µM. The same measure, in the same setting: next, `O=C(Nc1ccc(OC(F)(F)F)cc1)Nc1cc(-c2cc(Cl)cc(C(=O)O)c2)ccc1Oc1ccccc1Cl` [Example 260, 5-chloro-4′-(2-chlorophenoxy)-3′-(3-(4-(trifluoromethoxy)phenyl)ureido)biphenyl-3-carboxylic acid]: 5.59 µM.

In the case of `COc1ccc(-c2ccc(Oc3ccccc3C(C)(C)C)c(NC(=O)Nc3cc(C)ccc3C)c2)cc1C(=O)O` [Example 95, 4′-(2-(tert-butyl)phenoxy)-3′-(3-(2,5-dimethylphenyl)ureido)-4-methoxy-[1,1′-biphenyl]-3-carboxylic acid], the IC50 is 0.26 µM. In the case of `CCNC(=O)Nc1cc(-c2cccc(C(=O)O)c2)ccc1Oc1ccccc1C(C)(C)C` [Example 220, 4′-(2-tert-butylphenoxy)-3′-(3-ethylureido) biphenyl-3-carboxylic acid], the IC50 is 0.93 µM. `COc1ccc(-c2ccc(Oc3c(C)cccc3C(C)(C)C)c(NC(=O)Nc3ccccc3C)c2)cc1C(=O)O` [Example 59, 4′-(2-tert-butyl-6-methylphenoxy)-4-methoxy-3′-(3-o-tolylureido)biphenyl-3-carboxylic acid]: the IC50 was 0.88 µM. On the same count and under the same terms, next, `CCc1ccccc1Oc1ccc(-c2ccc(OC)c(C(=O)O)c2)cc1NC(=O)Nc1ccccc1C` [Example 56, 4′-(2-ethylphenoxy)-4-methoxy-3′-(3-o-tolylureido)biphenyl-3-carboxylic acid]: 0.13 µM; `Cc1cccc(NC(=O)Nc2cc(-c3ccccc3-c3nnn[nH]3)ccc2Oc2ccccc2C(C)(C)C)c1` [Example 182, 1-(4-(2-tert-butylphenoxy)-2′-(1H-tetrazol-5-yl)biphenyl-3-yl)-3-m-tolylurea]: 1.05 µM. As for `COc1ccc(-c2ccc(Oc3ccccc3C(C)(C)C)c(NC(=O)Nc3ccc4c(c3)CCC4)c2)cc1C(=O)O` [Example 102, 4′-(2-(tert-butyl)phenoxy)-3′-(3-(2,3-dihydro-1H-inden-5-yl)ureido)-4-methoxy-[1,1′-biphenyl]-3-carboxylic acid], the IC50 came to 0.22 µM.

Regarding `CC(C)(C)c1ccccc1Oc1ccc(-c2cc(Cl)cc(C(=O)O)c2)cc1NC(=O)Nc1ccc(C#N)cc1` [Example 240, 4′-(2-tert-butylphenoxy)-5-chloro-3′-(3-(4-cyanophenyl)ureido)biphenyl-3-carboxylic acid], the IC50 worked out at 0.54 µM. Still for that read-out and setting: next, `CCc1ccccc1Oc1ccc(-c2ccc(OC)c(C(=O)O)c2)cc1NC(=O)Nc1ccc(C)cc1` [Example 47, 4′-(2-ethylphenoxy)-4-methoxy-3′-(3-p-tolylureido)biphenyl-3-carboxylic acid]: 0.54 µM.

Turning to `COc1ccc(-c2ccc(Oc3ccccc3C(C)(C)C)c(NC(=O)Nc3cc(Cl)ccc3Cl)c2)cc1C(=O)O` [Example 104, 4′-(2-(tert-butyl)phenoxy)-3′-(3-(2,5-dichlorophenyl)ureido)-4-methoxy-[1,1′-biphenyl]-3-carboxylic acid], the IC50 turned out to be 0.1 µM.

The IC50 is the concentration needed to halve the response being measured.
